According to patent publication US5731328A, “Methods of inhibiting plasminogen activator inhibitor 1” (Eli Lilly and Company, priority 1996, dated 1998):

Columns and labels:
estrogen receptor = conditions: cited from earlier work
[1] = system: Human umbilical vein endothelial cells (HUVEC); assay: Responsiveness of HUVEC lots to 17-beta estradiol; assay type: cell-based; conditions: several lots of cells from Clonetics, initial experiments
PAI-1 = conditions: post-menopausal women, estrogen therapy; cited from earlier work
[2] = system: secretion of PAI-1 from human endothelial cells (HUVEC); assay: Endothelial cell PAI-1 assay: IL-1 induced PAI-1 secretion, Imubind Plasma PAI-1 ELISA; assay type: cell-based
Experimental: 96 well tissue culture plates were prepared with 5×10^4 human endothelial cells (HUVEC) per well in Clonetics' Endothelial Cell Growth Medium (EGM) supplemented with 2% FBS. Following incubation overnight at 37° C., the medium was replaced with serum-free medium (DMEM/F-12 medium, 20 mM-HEPES, pH 7.5, 50 μg/ml gentamicin, 1 μg/ml human transferrin and 1 μg/ml bovine insulin) with or without compound 1, (where R1 and R2 are hydroxy, and […] is pyrrolidino), and with or without 1 nM IL-1-beta. Following incubation overnight at 37° C., samples of culture medium were assayed for secreted PAI-1 using the Imubind Plasma PAI-1 ELISA (American Diagnostic Inc. #822/1S).
Human umbilical vein endothelial cells (HUVEC) were treated with compound 1 concurrent to the induction of PAI-1 with IL-1. […] Further the positive effect of compound 1 on reducing PAI-1 may provide for acute uses in conditions where elevated levels are associated with pathology.

O=C(c1ccc(OCCN2CCCCC2)cc1)c1c(-c2ccc(O)cc2)sc2cc(O)ccc12 [Raloxifene]
binding to the estrogen receptor (in words) (estrogen receptor): shown to bind to the estrogen receptor

C[C@]12CC[C@@H]3c4ccc(O)cc4CC[C@H]3[C@@H]1CC[C@@H]2O [17-beta estradiol]
responsiveness of HUVEC lots (in words) [1]: not all lots were responsive

estrogen
reduction of PAI-1 levels (in words) (PAI-1): reduced to pre-menopausal levels

O=C(c1ccc(OCCN2CCCC2)cc1)c1c(-c2ccc(O)cc2)sc2cc(O)ccc12 [Compound 1]
induction of PAI-1 by IL-1 (in words) ([2]; 0.5 nM, estrogen-responsive line): significantly reduced the induction of PAI-1 by IL-1 | inhibition at 0.005 µM ([2]; Homo sapiens, 5 × 10^-9 M, IL-1 induced secretion, different lot of estrogen-responsive HUVEC, read-out: PAI-1 Level (% inhibition)): 82 ± 17% | inhibition at 0.0005 µM ([2]; Homo sapiens, 5 × 10^-10 M, IL-1 induced secretion, different lot of estrogen-responsive HUVEC, read-out: PAI-1 Level (% inhibition)): 65 ± 8% | inhibition at 50 pM ([2]; Homo sapiens, 5 × 10^-11 M, IL-1 induced secretion, different lot of estrogen-responsive HUVEC, read-out: PAI-1 Level (% inhibition)): 48 ± 11% | inhibition at 5 pM ([2]; Homo sapiens, 5 × 10^-12 M, IL-1 induced secretion, different lot of estrogen-responsive HUVEC, read-out: PAI-1 Level (% inhibition)): 22 ± 4% | inhibition at 500 fM ([2]; Homo sapiens, 5 × 10^-13 M, IL-1 induced secretion, different lot of estrogen-responsive HUVEC, read-out: PAI-1 Level (% inhibition)): -1 ± 7% | inhibition at 50 fM ([2]; Homo sapiens, 5 × 10^-14 M, IL-1 induced secretion, different lot of estrogen-responsive HUVEC, read-out: PAI-1 Level (% inhibition)): 0% | PAI-1 Level (mean +/- SE, n = 4) ([2]; IL-1 & .5 nM compound 1, HUVEC, overnight at 37° C., serum-free medium, No IL-1 control 328 +/- 46, IL-1 alone 735 +/- 11): 521 ± 52 ng/mL | inhibition of IL-1 induced PAI-1 secretion, concentration dependence (in words) ([2]; different lot of estrogen-responsive cells): inhibited IL-1 induced secretion in a concentration-dependent manner | inhibition of the induction of PAI-1 from activated endothelial cells (in words) ([2]; summary of Tables 1 and 2): very potent inhibitor
